Test results published in paper PMC10291552, “Computational Design, Synthesis, and Biological Evaluation of Diimidazole Analogues Endowed with Dual PCSK9/HMG-CoAR-Inhibiting Activity” (Journal of Medicinal Chemistry, 2023).

Assays:
[1] = tested on: HepG2 cells; test: HepG2 cell viability (MTT assay); type: cell-based, human; conditions: 48 h treatment, 0.1 nM to 10 μM, versus control cells
Method: Figure 3 HepG2 cell viability after the Dim3 (A) and Dim16 (B) treatments. Bar graphs indicating the results of the cell viability assay of HepG2 cells after Dim3 and Dim16 (0.1–10,000 nM) treatment for 48 h. The data points represent the mean ± SD of the three experiments in triplicate. ns: not significant.
The HepG2 cell line was bought from ATCC (HB-8065, ATCC from LGC Standards, Milan, Italy) and cultured in DMEM high glucose with stable L-glutamine supplemented with 10% FBS, 100 U/mL penicillin, and 100 μg/mL streptomycin (complete growth medium) with incubation at 37 °C under a 5% CO2 atmosphere.

[2] = target: T1, PCSK9/LDLR (Homo sapiens, UniProt Q8NBP7); test: In vitro PCSK9-LDLR binding assay (CircuLex/CycLex kit); conditions: for IC50: mean ± SD, three independent experiments, Hill slope fixed at −1
T1 construct: purchased CircuLex (CycLex Co., Nagano, Japan)
Method: Diimidazole analogues (0.1–1 × 10^6 nM) were tested using the in vitro PCSK9-LDLR binding assay (CycLex Co., Nagano, Japan) following the manufacturer’s instructions and with the conditions already optimized.[15] Briefly, the plates were pre-coated with a recombinant LDLR-AB domain containing the binding site of PCSK9. Before starting the assay, the tested analogues and/or the vehicle in DMSO were sonicated at 37 °C, diluted in the reaction buffer, and added in microcentrifuge tubes. Afterward, the reaction mixtures were added in each well of the microplate, and the reaction was started by adding His-tagged PCSK9 solution (3 μL). The microplate was allowed to incubate for 2 h at room-temperature (RT) shaking at 300 rpm on an orbital microplate shaker. Subsequently, the wells were washed 4 times with the wash buffer. After the last wash, the biotinylated anti-His-tag monoclonal antibody (100 μL) was added and incubated at RT for 1 h shaking at 300 rpm. After incubation, the wells were washed 4 times with wash buffer. After the last wash, 100 μL of HRP-conjugated streptavidin were added, and the plate was incubated for 20 min at RT. After incubation, the wells were washed 4 times with wash buffer. Finally, the substrate reagent (tetra-methylbenzidine) was added, and the plate was incubated for 10 min at RT shaking at ca. 300 rpm. The reaction was stopped with 2.0 M sulfuric acid, and the absorbance at 450 nm was measured using a Synergy H1 fluorescent plate reader (Winooski, VT, USA).
All the data sets were checked for normal distribution by D’Agostino and Pearson tests. Since they are all normally disturbed with p values of […], we proceeded with statistical analyses of one-way ANOVA followed by Tukey’s post hoc test using Graphpad Prism 9 (San Diego, CA, USA). Values were reported as means ± s.d.; p values of <0.05 were considered to be significant. The IC50 values of samples inhibiting PCSK9-LDLR binding were evaluated by using the log(inhibitor) vs response model of GraphPad Prism 9 (San Diego, CA, USA). This model assumes that the dose–response curves has a standard slope, equal to a Hill slope (or slope factor) of −1.0. This is the slope expected when a ligand binds to a receptor following the law of mass action and is the slope expected of a dose–response curve when the second messenger created by receptor stimulation binds to its receptor by the law of mass action (https://graphpad.com/guides/prism/latest/curvefitting/reg_dr_inhibit.htm).

[3] = tested on: LDLR localized on HepG2 surfaces; test: In-cell Western assay of LDLR on the HepG2 cell surface in the presence of PCSK9; type: cell-based, human; conditions: for LDLR levels on HepG2 surface: co-incubated with PCSK9 4 μg/mL, relative to untreated control cells; for fold more active than Rim13: LDLR restoration and LDL uptake in HepG2 cells, versus Rim13 ref 25
Method: For the experiments, a total of 3 × 10^4 HepG2 cells/well were seeded in 96-well plates. The following day, the cells were washed with PBS and then starved overnight (O/N) in DMEM without FBS and antibiotics. After starvation, the HepG2 cells were treated with 4.0 μg/mL PCSK9-WT and 4.0 μg/mL PCSK9 + diimidazole analogues and vehicle (H2O) for 2 h at 37 °C under a 5% CO2 atmosphere. Subsequently, they were fixed in 4% paraformaldehyde for 20 min at room temperature (RT). Cells were washed 5 times with 100 μL of PBS/well (each wash was for 5 min at RT), and the endogenous peroxide activity was quenched by adding 3% H2O2 for 20 min at RT. Non-specific sites were blocked with 100 μL/well of 5% bovine serum albumin (BSA, Sigma) in PBS for 1.5 h at RT. LDLR primary antibody solution (1:3000 in 5% BSA in PBS, 25 μL/well) was incubated O/N at +4 °C. Subsequently, the primary antibody solution was discarded, and each sample was washed 5 times with 100 μL/well of PBS (each wash was for 5 min at RT). Goat anti-rabbit Ig-HRP secondary antibody solution (Santa Cruz) (1:6000 in 5% BSA in PBS, 50 μL/well) was added and incubated 1 h at RT. The secondary antibody solution was washed 5 times with 100 μL/well of PBS (each wash for 5 min at RT). Freshly prepared TMB substrate (Pierce, 100 μL/well) was added, and the plate was incubated at RT until the desired color was developed. The reaction was stopped with 2 M H2SO4, and then the absorbance at 450 nm was measured using a microplate reader (Synergy H1, Winooski, VT, USA). After the reading, the cells were stained by adding 1× Janus Green stain, incubating for 5 min at RT. The dye was removed, and the sample was washed 5 times with water. Afterward, 100 μL of 0.5 M HCl for well was added, and the solution was incubated for 10 min. After 10 s of shaking, the OD at 595 nm was measured using the microplate reader (Synergy H1, Winooski, VT, USA).

[4] = tested on: HepG2 cells; test: Fluorescent LDL uptake by HepG2 cells in the presence of PCSK9; type: cell-based, human; conditions: co-incubated with PCSK9 4 μg/mL, relative to untreated control cells
Method: HepG2 cells (3 × 10^4/well) were seeded in 96-well plates and kept in complete growth medium for 2 days before treatment. On the third day, the cells were washed with PBS and then starved overnight (O/N) in DMEM without FBS and antibiotics. After starvation, they were treated with 4.0 μg/mL PCSK9, 4.0 μg/mL PCSK9 + diimidazole analogues, and vehicle (H2O) for 2 h with at 37 °C under a 5% CO2 atmosphere. At the end of the treatment, the culture medium was replaced with 50 μL/well LDL-DyLight 550 working solution (Cayman Chemical Company, Ann Arbor, MI, USA) prepared in DMEM without FBS and antibiotics. The cells were additionally incubated for 2 h at 37 °C, and then the culture medium was aspirated and replaced with PBS (100 μL/well). The degree of LDL uptake was measured using a Synergy H1 fluorescent plate reader (Winooski, VT, USA) (excitation and emission wavelengths of 540 and 570 nm, respectively). Fluorescent LDL uptake was finally assessed following optimized protocol.[14]

T1 sequence (Q8NBP7 153-692): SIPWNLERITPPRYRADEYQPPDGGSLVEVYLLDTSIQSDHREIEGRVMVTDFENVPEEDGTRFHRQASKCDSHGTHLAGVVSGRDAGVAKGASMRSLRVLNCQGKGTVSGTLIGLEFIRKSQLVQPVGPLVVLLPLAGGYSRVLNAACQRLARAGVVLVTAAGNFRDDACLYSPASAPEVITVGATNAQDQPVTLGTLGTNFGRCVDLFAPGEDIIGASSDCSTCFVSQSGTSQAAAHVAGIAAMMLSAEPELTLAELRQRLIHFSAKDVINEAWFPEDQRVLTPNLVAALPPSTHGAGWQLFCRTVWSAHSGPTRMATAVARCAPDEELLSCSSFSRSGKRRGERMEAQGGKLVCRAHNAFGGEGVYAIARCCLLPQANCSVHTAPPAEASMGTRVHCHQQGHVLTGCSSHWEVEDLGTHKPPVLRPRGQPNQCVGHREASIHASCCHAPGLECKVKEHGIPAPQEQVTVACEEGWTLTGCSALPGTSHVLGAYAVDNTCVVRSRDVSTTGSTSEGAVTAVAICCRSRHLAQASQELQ
T1 sequence (Q8NBP7 31-152 limits assumed): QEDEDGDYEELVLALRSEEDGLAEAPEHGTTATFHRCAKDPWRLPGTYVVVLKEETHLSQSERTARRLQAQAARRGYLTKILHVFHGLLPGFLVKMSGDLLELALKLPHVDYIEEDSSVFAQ

## CNCCCCCn1c(-c2ncc(-c3ccc4ccccc4c3)n2CCCC(C)(C)C)cnc1I [Dim16, 5-(1-(4,4-Dimethylpentyl)-2′-iodo-5-(naphthalen-2-yl)-1H,3′H-[2,4′-biimidazol]-3′-yl)-N-methylpentan-1-amine]
[1]
  HepG2 cell vitality: safe for HepG2 cells and safe
[2]
  IC50: 0.8 ± 1 nM
[2]; ratio versus P5
  PCSK9/LDLR PPI, fold more active than P5: 2000
[3]; 1 nM
  LDLR levels on HepG2 surface: 91.1 ± 2.22%
[3]; 10 nM
  LDLR levels on HepG2 surface: 87.17 ± 7.42%
[3]
  fold more active than Rim13: 100
[3]; cellular level, Figure 4
  fold more effective than Dim3 in restoring LDLR protein level on cell surface: 10
[4]; 1 nM
  LDL uptake: 81.87 ± 7.45%
[4]; 10 nM
  LDL uptake: 136.47 ± 8.81%

## C#Cc1ncc(-c2ncc(-c3ccc4ccccc4c3)n2CCCC(C)(C)C)n1CCCCCNC [Dim3, 5-(1-(4,4-Dimethylpentyl)-2′-ethynyl-5-(naphthalen-2-yl)-1H,3′H-[2,4′-biimidazol]-3′-yl)-N-methylpentan-1-amine]
[1]
  HepG2 cell vitality: safe for HepG2 cells and safe
[2]
  IC50: 9 ± 10 nM
[3]; 1 nM
  LDLR levels on HepG2 surface: 77.87 ± 3.04%
[3]; 10 nM
  LDLR levels on HepG2 surface: 101.1 ± 15.06%
[3]
  fold more active than Rim13: 100
[4]; 1 nM
  LDL uptake: 94.12 ± 10.95%
[4]; 10 nM
  LDL uptake: 103.47 ± 7.34%
